What was measured:
Assay type in all cases: biochemical
Jarid1A = Jarid1A (Homo sapiens (Human), UniProt P29375); test: Jarid1A in vitro enzyme inhibition assay (TR-FRET)
Text: The enzymatic assay of Jarid1A activity is based upon Time Resolved-Fluorescence Resonance Energy Transfer (TR-FRET) detection.

Jarid1B = Jarid1B (Homo sapiens (Human), UniProt Q9UGL1); test: Jarid1B in vitro enzyme inhibition assay (TR-FRET)
Experimental: This assay determines the ability of a test compound to inhibit Jarid1A, Jarid1B, JMJD2C, and JMJD2A demethylase activity.
The ability of test compounds to inhibit the activity of Jarid1B was determined in 384-well plate format under the following reaction conditions: 0.8 nM Jarid1B, 300 nM H3K4me3-biotin labeled peptide (Anaspec cat #64357), 2 μM alpha-ketoglutaric acid in assay buffer of 50 mM HEPES, pH7.3, 0.005% Brij35, 0.5 mM TCEP, 0.2 mg/ml BSA, 50 μM sodium L-ascorbate, and 2 μM ammonium iron(II) sulfate. Reaction product was determined quantitatively by TR-FRET after the addition of detection reagent Phycolink Streptavidin-allophycocyanin (Prozyme) and Europium-anti-mono- or di-methylated histone H3 lysine 4 (H3K4me1-2) antibody (PerkinElmer) in the presence of 5 mM EDTA in LANCE detection buffer (PerkinElmer) at a final concentration of 25 nM and 1 nM, respectively.
The assay reaction was initiated by the following: 2 μl of the mixture of 900 nM H3K4me3-biotin labeled peptide and 6 μM alpha-ketoglutaric acid with 2 μl of 11-point serial diluted inhibitor in 3% DMSO was added to each well of the plate, followed by the addition of 2 μl of 2.4 nM Jarid1B to initiate the reaction. The reaction mixture was incubated at room temperature for 30 minutes, and terminated by the addition of 6 μl of 5 mM EDTA in LANCE detection buffer containing 50 nM Phycolink Streptavidin-allophycocyanin and 2 nM Europium-anti-H3K4me1-2 antibody. Plates were read by EnVisionMultilabel Reader in TR-FRET mode (excitation at 320 nm, emission at 615 nm and 665 nm) after 1 hour incubation at room temperature. A ratio was calculated (665/615) for each well and fitted to determine inhibition constant (IC50).

JMJD2C = JMJD2C (Homo sapiens (Human), UniProt Q9H3R0); test: JMJD2C in vitro enzyme inhibition assay (TR-FRET)
JMJD2C, sequence (Q9H3R0 2-372): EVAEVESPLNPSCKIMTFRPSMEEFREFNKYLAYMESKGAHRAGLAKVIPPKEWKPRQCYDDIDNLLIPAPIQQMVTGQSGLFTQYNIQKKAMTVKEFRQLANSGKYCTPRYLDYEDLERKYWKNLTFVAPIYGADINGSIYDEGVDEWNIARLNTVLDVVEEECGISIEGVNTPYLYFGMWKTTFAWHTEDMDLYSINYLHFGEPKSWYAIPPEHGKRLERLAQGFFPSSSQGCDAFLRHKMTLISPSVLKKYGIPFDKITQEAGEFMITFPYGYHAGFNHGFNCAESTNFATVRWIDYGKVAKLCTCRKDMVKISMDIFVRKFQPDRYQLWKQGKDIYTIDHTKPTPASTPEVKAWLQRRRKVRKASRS
Experimental: Baculovirus expressed JMJD2C (GenBank Accession #BC143571, AA 2-372) was purchased from BPS Bioscience (Cat#50105).
The ability of test compounds to inhibit the activity of JMJD2C was determined in 384-well plate format under the following reaction conditions: 0.3 nM JMJD2C, 300 nM H3K9me3-biotin labeled peptide (Anaspec cat #64360), 2 μM alpha-ketoglutaric acid in assay buffer of 50 mM HEPES, pH7.3, 0.005% Brij35, 0.5 mM TCEP, 0.2 mg/ml BSA, 50 μM sodium L-ascorbate, and 2 μM ammonium iron(II) sulfate. Reaction product was determined quantitatively by TR-FRET after the addition of detection reagent Phycolink Streptavidin-allophycocyanin (Prozyme) and Europium-anti-di-methylated histone H3 lysine 9 (H3K9me2) antibody (PerkinElmer) in the presence of 5 mM EDTA in LANCE detection buffer (PerkinElmer) at a final concentration of 50 nM and 1 nM, respectively.
The assay reaction was initiated by the following: 2 μl of the mixture of 900 nM H3K9me3-biotin labeled peptide and 6 μM alpha-ketoglutaric acid with 2 μl of 11-point serial diluted inhibitor in 3% DMSO were added to each well of the plate, followed by the addition of 2 μl of 0.9 nM JMJD2C to initiate the reaction. The reaction mixture was incubated at room temperature for 30 minutes, and terminated by the addition of 6 μl of 5 mM EDTA in LANCE detection buffer containing 100 nM Phycolink Streptavidin-allophycocyanin and 2 nM Europium-anti-H3K9me2 antibody. Plates were read by EnVisionMultilabel Reader in TR-FRET mode (excitation at 320 nm, emission at 615 nm and 665 nm) after 1 hour incubation at room temperature. A ratio was calculated (665/615) for each well and fitted to determine inhibition constant (IC50).

Jarid1B, sequence (Q9UGL1 2-751): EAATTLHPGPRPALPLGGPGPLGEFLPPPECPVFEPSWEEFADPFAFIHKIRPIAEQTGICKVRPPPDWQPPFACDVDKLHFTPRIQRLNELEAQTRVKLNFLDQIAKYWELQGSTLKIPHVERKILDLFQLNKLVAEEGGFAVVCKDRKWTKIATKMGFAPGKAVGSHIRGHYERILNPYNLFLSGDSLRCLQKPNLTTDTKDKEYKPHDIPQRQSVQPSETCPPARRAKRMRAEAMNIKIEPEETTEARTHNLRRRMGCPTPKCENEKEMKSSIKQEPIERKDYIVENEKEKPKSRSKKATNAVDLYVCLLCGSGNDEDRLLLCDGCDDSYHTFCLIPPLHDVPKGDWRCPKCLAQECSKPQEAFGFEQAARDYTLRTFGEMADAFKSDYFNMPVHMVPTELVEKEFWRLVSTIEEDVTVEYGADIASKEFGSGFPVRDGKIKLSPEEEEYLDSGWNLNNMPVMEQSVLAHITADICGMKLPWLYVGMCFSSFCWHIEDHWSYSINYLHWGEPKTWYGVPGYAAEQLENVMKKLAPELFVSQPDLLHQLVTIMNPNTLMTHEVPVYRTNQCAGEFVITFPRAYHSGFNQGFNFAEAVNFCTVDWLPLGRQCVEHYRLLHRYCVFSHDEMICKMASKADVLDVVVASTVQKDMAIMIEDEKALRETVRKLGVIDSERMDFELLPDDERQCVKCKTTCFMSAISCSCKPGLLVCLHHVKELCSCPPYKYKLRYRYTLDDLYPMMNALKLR
Jarid1A, sequence (P29375 1-1090): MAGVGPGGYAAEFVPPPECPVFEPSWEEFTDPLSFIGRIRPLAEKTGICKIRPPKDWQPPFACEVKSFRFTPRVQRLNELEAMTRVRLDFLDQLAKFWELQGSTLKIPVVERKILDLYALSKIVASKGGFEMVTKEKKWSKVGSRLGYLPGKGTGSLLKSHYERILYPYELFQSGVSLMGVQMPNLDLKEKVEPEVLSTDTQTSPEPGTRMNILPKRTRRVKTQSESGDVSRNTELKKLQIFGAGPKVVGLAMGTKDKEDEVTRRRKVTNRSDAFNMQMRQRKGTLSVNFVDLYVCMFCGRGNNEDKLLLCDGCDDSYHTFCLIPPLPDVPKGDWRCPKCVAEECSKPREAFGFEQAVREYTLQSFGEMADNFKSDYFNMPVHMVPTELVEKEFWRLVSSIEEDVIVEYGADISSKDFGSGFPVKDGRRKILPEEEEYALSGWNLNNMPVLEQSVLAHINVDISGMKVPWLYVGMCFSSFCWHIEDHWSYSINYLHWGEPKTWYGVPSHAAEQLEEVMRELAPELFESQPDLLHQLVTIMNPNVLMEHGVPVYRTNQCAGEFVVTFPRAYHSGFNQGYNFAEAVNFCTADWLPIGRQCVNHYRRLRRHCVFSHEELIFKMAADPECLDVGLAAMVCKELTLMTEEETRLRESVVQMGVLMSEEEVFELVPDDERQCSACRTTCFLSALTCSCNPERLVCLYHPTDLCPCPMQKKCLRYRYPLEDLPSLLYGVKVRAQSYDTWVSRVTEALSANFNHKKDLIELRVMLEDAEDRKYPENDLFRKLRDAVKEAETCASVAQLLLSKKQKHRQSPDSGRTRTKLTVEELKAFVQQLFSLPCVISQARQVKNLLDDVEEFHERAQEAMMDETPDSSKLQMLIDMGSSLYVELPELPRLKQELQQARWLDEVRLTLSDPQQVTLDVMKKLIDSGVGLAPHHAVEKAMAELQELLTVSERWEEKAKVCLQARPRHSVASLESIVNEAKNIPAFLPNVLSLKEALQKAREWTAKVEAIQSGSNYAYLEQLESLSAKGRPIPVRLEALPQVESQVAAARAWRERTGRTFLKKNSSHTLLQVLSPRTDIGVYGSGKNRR

Row | SMILES | IC50 (Jarid1A) [nM] | IC50 (Jarid1B) [nM] | IC50 (JMJD2C) [nM]
1 | O=C(O)c1ccnc(-n2nccc2OCc2ccc(Cl)c(C(F)(F)F)c2)c1 [Example 91, 2-[5-[[4-chloro-3-(trifluoromethyl)phenyl]methoxy]pyrazol-1-yl]pyridine-4-carboxylic acid] | < 100 | < 100 | 100 to 1000
2 | O=C(O)c1ccnc(-n2nccc2CCc2ccccc2)c1 [Example 34, 2-(5-phenethyl-1H-pyrazol-1-yl)isonicotinic acid] | 1000 to 10000 | 1000 to 10000 | > 10000
3 | CS(=O)(=O)c1ccc(-c2ccnn2-c2cc(C(=O)O)ccn2)cc1 [Example 19, 2-(5-(4-(methylsulfonyl)phenyl)-1H-pyrazol-1-yl)isonicotinic acid] | 100 to 1000 | 100 to 1000 | 1000 to 10000
4 | O=C(O)c1ccnc(-n2nccc2OCC2CC(F)(F)C2)c1 [Example 83, 2-[5-[(3,3-difluorocyclobutyl)methoxy]pyrazol-1-yl]pyridine-4-carboxylic acid] | < 100 | < 100 | < 100
5 | O=C(O)c1ccnc(-n2nccc2OCc2ccc(F)cc2F)c1 [Example 86, 2-[5-[(2,4-difluorophenyl)methoxy]pyrazol-1-yl]pyridine-4-carboxylic acid] | < 100 | < 100 | 100 to 1000
6 | COc1cc(Cl)ccc1COc1ccnn1-c1cc(C(=O)O)ccn1 [Example 90, 2-[5-[(4-chloro-2-methoxyphenyl)methoxy]pyrazol-1-yl]pyridine-4-carboxylic acid] | < 100 | < 100 | < 100
7 | COc1cc(C)nn1-c1cc(C(=O)O)ccn1 [Example 37, 2-(5-methoxy-3-methyl-1H-pyrazol-1-yl)isonicotinic acid] | 1000 to 10000 | 1000 to 10000 | 1000 to 10000
8 | O=C(O)c1ccnc(-n2nccc2OCc2cccc(O)c2)c1 [Example 73, 2-{5-[(3-hydroxybenzyl)oxy]-1H-pyrazol-1-yl}pyridine-4-carboxylic acid] | < 100 | < 100 | < 100
9 | CN(C)CCc1cnn(-c2cc(C(=O)O)ccn2)c1OCc1ccc(F)cc1 [Example 110, 2-[4-[2-(dimethylamino)ethyl]-5-[(4-fluorophenyl)methoxy]pyrazol-1-yl]pyridine-4-carboxylic acid] | < 100 | < 100 | 100 to 1000
10 | COc1cccc(COc2ccnn2-c2cc(C(=O)O)ccn2)c1 [Example 42, 2-{5-[(3-methoxybenzyl)oxy]-1H-pyrazol-1-yl}pyridine-4-carboxylic acid] | < 100 | < 100 | < 100
11 | Cc1cc(OCc2ccccc2)n(-c2cc(C(=O)O)ccn2)n1 [Example 38, 2-(5-(benzyloxy)-3-methyl-1H-pyrazol-1-yl)isonicotinic acid] | 100 to 1000 | < 100 | 100 to 1000
12 | N#Cc1cccc(COc2ccnn2-c2cc(C(=O)O)ccn2)c1 [Example 97, 2-[5-[(3-cyanophenyl)methoxy]pyrazol-1-yl]pyridine-4-carboxylic acid] | < 100 | < 100 | < 100
13 | O=C(O)c1ccnc(-n2nccc2OCc2cccnc2)c1 [Example 60, 2-[5-(pyridin-3-ylmethoxy)-1H-pyrazol-1-yl]pyridine-4-carboxylic acid] | < 100 | < 100 | 100 to 1000
14 | CCc1ccc(COc2ccnn2-c2cc(C(=O)O)ccn2)c(Cl)c1 [Example 150, 2-[5-[(2-chloro-4-ethylphenyl)methoxy]pyrazol-1-yl]pyridine-4-carboxylic acid] | 100 to 1000 | 100 to 1000 | 1000 to 10000
15 | O=C(O)c1ccnc(-n2nccc2OCc2ccc(Cl)c(OCC(F)(F)F)c2)c1 [Example 141, 2-[5-[[4-chloro-3-(2,2,2-trifluoroethoxy)phenyl]methoxy]pyrazol-1-yl]pyridine-4-carboxylic acid] | < 100 | < 100 | 100 to 1000
16 | CN(C)c1ccc(-c2ccnn2-c2cc(C(=O)O)ccn2)cc1 [Example 47, 2-{5-[4-(dimethylamino)phenyl]-1H-pyrazol-1-yl}pyridine-4-carboxylic acid] | 100 to 1000 | 100 to 1000 | 1000 to 10000
17 | COc1cc(I)ccc1COc1ccnn1-c1cc(C(=O)O)ccn1 [Example 145, 2-[5-[(4-iodo-2-methoxyphenyl)methoxy]pyrazol-1-yl]pyridine-4-carboxylic acid] | < 100 | < 100 | 100 to 1000
18 | O=C(O)c1ccnc(-n2nccc2OCc2ccc(F)c(F)c2)c1 [Example 52, 2-{5-[(3,4-difluorobenzyl)oxy]-1H-pyrazol-1-yl}pyridine-4-carboxylic acid] | < 100 | < 100 | 100 to 1000
19 | O=C(O)c1ccnc(-n2nccc2OCc2ccc(C3CC3)cc2Cl)c1 [Example 152, 2-[5-[(2-chloro-4-cyclopropylphenyl)methoxy]pyrazol-1-yl]pyridine-4-carboxylic acid] | 100 to 1000 | 100 to 1000 | 1000 to 10000

Row | SMILES | IC50 (Jarid1A) [nM] | IC50 (Jarid1B) [nM] | IC50 (JMJD2C) [nM]
20 | O=C(O)c1ccnc(-n2nccc2OCc2cccc3c2OCC3)c1 [Example 123, 2-[5-(2,3-dihydro-1-benzofuran-7-ylmethoxy)pyrazol-1-yl]pyridine-4-carboxylic acid] | < 100 | < 100 | 100 to 1000
21 | CC(Oc1cc(F)ccc1COc1ccnn1-c1cc(C(=O)O)ccn1)c1ccccc1 (stereo not drawn) [Example 137, 2-[5-[[4-fluoro-2-(1-phenylethoxy)phenyl]methoxy]pyrazol-1-yl]pyridine-4-carboxylic acid] | 100 to 1000 | 100 to 1000 | 1000 to 10000
22 | Cc1ccc(-c2ccnn2-c2cc(C(=O)O)ccn2)cc1O [Example 21, 2-(5-(3-hydroxy-4-methylphenyl)-1H-pyrazol-1-yl)isonicotinic acid] | < 100 | < 100 | 100 to 1000
23 | Cc1cnn(-c2cc(C(=O)O)ccn2)c1OCc1ccc(F)cc1 [Example 84, 2-[5-[(4-fluorophenyl)methoxy]-4-methylpyrazol-1-yl]pyridine-4-carboxylic acid] | < 100 | < 100 | 100 to 1000
24 | O=C(O)c1ccnc(-n2nccc2OCc2ccc(C3CC3)c(Cl)c2)c1 [Example 154, 2-[5-[(3-chloro-4-cyclopropylphenyl)methoxy]pyrazol-1-yl]pyridine-4-carboxylic acid] | 100 to 1000 | 100 to 1000 | 1000 to 10000
25 | Cc1ccc(COc2ccnn2-c2cc(C(=O)O)ccn2)cc1F [Example 93, 2-[5-[(3-fluoro-4-methylphenyl)methoxy]pyrazol-1-yl]pyridine-4-carboxylic acid] | < 100 | < 100 | < 100
26 | O=C(O)c1ccnc(-n2nccc2OCc2cccc(Cl)c2)c1 [Example 58, 2-{5-[(3-chlorobenzyl)oxy]-1H-pyrazol-1-yl}pyridine-4-carboxylic acid] | < 100 | < 100 | < 100
27 | O=C(O)c1ccnc(-n2nccc2OCc2cccc(F)c2)c1 [Example 41, 2-{5-[(3-fluorobenzyl)oxy]-1H-pyrazol-1-yl}pyridine-4-carboxylic acid] | < 100 | < 100 | < 100
28 | O=C(O)c1ccnc(-n2nccc2OCc2ccc(F)cc2CCc2ccc(F)cc2)c1 [Example 121, 2-[5-[[4-fluoro-2-[2-(4-fluorophenyl)ethyl]phenyl]methoxy]pyrazol-1-yl]pyridine-4-carboxylic acid] | 100 to 1000 | 100 to 1000 | 1000 to 10000
29 | CCc1ccc(COc2ccnn2-c2cc(C(=O)O)ccn2)cc1F [Example 96, 2-[5-[(4-ethyl-3-fluorophenyl)methoxy]pyrazol-1-yl]pyridine-4-carboxylic acid] | < 100 | < 100 | 100 to 1000
30 | O=C(O)c1ccnc(-n2nccc2OCc2ccccc2F)c1 [Example 59, 2-{5-[(2-fluorobenzyl)oxy]-1H-pyrazol-1-yl}pyridine-4-carboxylic acid] | < 100 | < 100 | < 100
31 | COc1cc(-c2ccnn2-c2cc(C(=O)O)ccn2)ccc1C [Example 20, 2-(5-(3-methoxy-4-methylphenyl)-1H-pyrazol-1-yl)isonicotinic acid] | 100 to 1000 | 100 to 1000 | 1000 to 10000
32 | COc1cc(-c2ccnn2-c2cc(C(=O)O)ccn2)ccc1Cl [Example 22, 2-(5-(4-chloro-3-methoxyphenyl)-1H-pyrazol-1-yl)isonicotinic acid] | 100 to 1000 | 100 to 1000 | 1000 to 10000
33 | CCc1cc(C)ccc1COc1ccnn1-c1cc(C(=O)O)ccn1 [Example 135, 2-[5-[(2-ethyl-4-methylphenyl)methoxy]pyrazol-1-yl]pyridine-4-carboxylic acid] | 100 to 1000 | 100 to 1000 | 1000 to 10000
34 | Cc1cc(F)ccc1COc1ccnn1-c1cc(C(=O)O)ccn1 [Example 128, 2-[5-[(4-fluoro-2-methylphenyl)methoxy]pyrazol-1-yl]pyridine-4-carboxylic acid] | < 100 | < 100 | 100 to 1000
35 | O=C(O)c1ccnc(-n2nccc2OCc2ccc(Cl)cc2Cl)c1 [Example 88, 2-[5-[(2,4-dichlorophenyl)methoxy]pyrazol-1-yl]pyridine-4-carboxylic acid] | < 100 | < 100 | 100 to 1000
36 | Cc1cc(Br)ccc1COc1ccnn1-c1cc(C(=O)O)ccn1 [Example 142, 2-[5-[(4-bromo-2-methylphenyl)methoxy]pyrazol-1-yl]pyridine-4-carboxylic acid] | 100 to 1000 | 100 to 1000 | 100 to 1000
37 | CCc1cc(C#N)ccc1COc1ccnn1-c1cc(C(=O)O)ccn1 [Example 126, 2-[5-[(4-cyano-2-ethylphenyl)methoxy]pyrazol-1-yl]pyridine-4-carboxylic acid] | < 100 | < 100 | 100 to 1000
